Measured values published in patent US11753446B2, “Beta-hairpin peptidomimetics” (POLYPHOR AG, priority 2014, dated 2023).
Where a SMILES comes first, the peptide text is derived from it. Bridges are numbered along the chain shown (N, C = ends). [ ]: non-standard residue; d: D form. Tle = CC(C)(C)[C@H](N)C(=O)O; dDab = NCC[C@@H](N)C(=O)O; Dab = NCC[C@H](N)C(=O)O; Dap = NC[C@H](N)C(=O)O

How the values were obtained:
[1] = tested on: Acinetobacter baumannii DSM 30008; type: cell-based; details: DSM 30008
Summary of the method: (§1)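 Peptide MICs were determined by NCCLS broth microdilution in cation-adjusted Mueller-Hinton II broth. Inoculum was about 10^6 CFU/mL, matched to 0.5 McFarland, with peptides in two-fold serial dilutions. The broth contained Polysorbate 80 at 0.002% final concentration.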

[2] = tested on: Escherichia coli ATCC 25922; type: cell-based; details: ATCC 25922
Summary of the method: as §1

[3] = tested on: Klebsiella pneumoniae ATCC 13883; type: cell-based; details: ATCC 13883
Summary of the method: as §1

[4] = tested on: human red blood cells (hRBC); test: Hemolysis: hemolytic activity at 100 μg/mL, 1 h at 37° C.; details: red cells of human, 1 h, 100
Summary of the method: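 Peptides at 100 μg/mL incubated with washed 20% (v/v) human erythrocytes (~0.9×10^9 cells/mL) for 1 h at 37 °C with shaking. Released hemoglobin read at OD 540 nm in supernatant; 0% and 100% lysis from PBS/0.001% acetic acid and 2.5% Triton X-100.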

Compound	Acinetobacter baumannii DSM 30008 MIC [1] [µg/mL]	Escherichia coli ATCC 25922 MIC [2] [µg/mL]	Klebsiella pneumoniae ATCC 13883 MIC [3] [µg/mL]	Hemolysis at 100 μg/mL [4] [%]
CC(C)[C@@H]1NC(=O)[C@@H]2CCCN2C(=O)[C@@H]([C@H](C)O)NC(=O)[C@H]([C@@H](C)O)NC(=O)[C@@H]2CC(=O)NCC[C@H](NC1=O)C(=O)N[C@@H](Cc1ccc(O)cc1)C(=O)N[C@@H](CCN)C(=O)N[C@@H](CN)C(=O)N[C@H](CCN)C(=O)N[C@@H](CCN)C(=O)N[C@@H](Cc1c[nH]c3ccccc13)C(=O)N[C@@H](CCN)C(=O)N[C@@H](C(C)(C)C)C(=O)N2 [Example 29, cyclo(-Val-Dab-Tyr-Dab-Dap-^DDab-Dab-Trp-Dab-tBuGly-Asp-Thr-^DThr-Pro-)] (cyclo(V[Dab]Y[Dab][Dap][dDab][Dab]W[Dab][Tle]DT[dT]P); lactam 2-11)	1	0.5	0.5	2
CC(C)C[C@@H]1NC(=O)[C@H](CCCNC(=N)N)NC(=O)[C@@H](CCN)NC(=O)[C@H](C(C)C)NC(=O)[C@@H]2CSSC[C@H](NC1=O)C(=O)N[C@@H](C(C)C)C(=O)N[C@@H](C(C)C)C(=O)N[C@@H](CCCN)C(=O)N[C@H](CCN)C(=O)N[C@@H](CCN)C(=O)N[C@@H](Cc1c[nH]c3ccccc13)C(=O)N[C@@H](Cc1ccc(O)cc1)C(=O)N[C@@H](Cc1ccc(O)cc1)C(=O)N2 [Example 20, cyclo(-Leu-Cys-Val-Val-Orn-^DDab-Dab-Trp-Tyr-Tyr-Cys-Val-^DDab-Arg-)] (HELM PEPTIDE1{C.V.V.[Orn].[NCC[C@@H](N[*:1])C(=O)[*:2]].[Dab].W.Y.Y.C.V.[NCC[C@@H](N[*:1])C(=O)[*:2]].R.L}$PEPTIDE1,PEPTIDE1,1:R3-10:R3|PEPTIDE1,PEPTIDE1,1:R1-14:R2$$$V2.0)	0.25	1	1	7
CC[C@H](C)[C@@H]1NC(=O)[C@H](CCCNC(=N)N)NC(=O)[C@@H](CCN)NC(=O)[C@H](C(C)C)NC(=O)[C@@H]2CSSC[C@H](NC1=O)C(=O)N[C@@H](Cc1ccc(O)cc1)C(=O)N[C@@H](CC(N)=O)C(=O)N[C@@H](CCCN)C(=O)N[C@H](CCN)C(=O)N[C@@H](CCN)C(=O)N[C@@H](Cc1c[nH]c3ccccc13)C(=O)N[C@@H](CO)C(=O)N[C@@H](Cc1ccc(O)cc1)C(=O)N2 [Example 70, cyclo(-Ile-Cys-Tyr-Asn-Orn-^DDab-Dab-Trp-Ser-Tyr-Cys-Val-^DDab-Arg-)] (HELM PEPTIDE1{C.V.[NCC[C@@H](N[*:1])C(=O)[*:2]].R.I.C.Y.N.[Orn].[NCC[C@@H](N[*:1])C(=O)[*:2]].[Dab].W.S.Y}$PEPTIDE1,PEPTIDE1,1:R3-6:R3|PEPTIDE1,PEPTIDE1,1:R1-14:R2$$$V2.0)	2.25	1	1	1
CC(C)[C@@H]1NC(=O)[C@@H]2CCCN2C(=O)[C@@H](C)NC(=O)[C@H]([C@@H](C)O)NC(=O)[C@H](CO)NC(=O)[C@H](C(C)(C)C)NC(=O)[C@H](CCN)NC(=O)[C@H](Cc2c[nH]c3ccccc23)NC(=O)[C@H](CCN)NC(=O)[C@@H](CCN)NC(=O)[C@H](CN)NC(=O)[C@H](CCN)NC(=O)[C@H](Cc2ccc(O)cc2)NC(=O)[C@H](CN)NC1=O [Example 45, cyclo(-Val-Dap-Tyr-Dab-Dap-^DDab-Dab-Trp-Dab-tBuGly-Ser-Thr-^DAla-Pro-)] (cyclo([Dab][Dap][dDab][Dab]W[Dab][Tle]ST[dA]PV[Dap]Y))	1	0.5	0.25	4
